Measured values as given in patent US7473790B2 (Pfizer Inc., priority 2003, dated 2009).

What follows are compounds tested against T1, HCV polymerase (Hepatitis C virus genotype 1b, UniProt P26663) (assay: HCV polymerase primer/template-directed transcription assay (32P-GTP incorporation, filter binding)). Settings: @ 50 uM compound; given where IC50 was impractical to calculate; read-out: percent inhibition.
T1 construct: 2.5 pmoles (0.15 μg) HCV polymerase protein in a final volume of 75 μL
T1 sequence (P26663 2420-3010): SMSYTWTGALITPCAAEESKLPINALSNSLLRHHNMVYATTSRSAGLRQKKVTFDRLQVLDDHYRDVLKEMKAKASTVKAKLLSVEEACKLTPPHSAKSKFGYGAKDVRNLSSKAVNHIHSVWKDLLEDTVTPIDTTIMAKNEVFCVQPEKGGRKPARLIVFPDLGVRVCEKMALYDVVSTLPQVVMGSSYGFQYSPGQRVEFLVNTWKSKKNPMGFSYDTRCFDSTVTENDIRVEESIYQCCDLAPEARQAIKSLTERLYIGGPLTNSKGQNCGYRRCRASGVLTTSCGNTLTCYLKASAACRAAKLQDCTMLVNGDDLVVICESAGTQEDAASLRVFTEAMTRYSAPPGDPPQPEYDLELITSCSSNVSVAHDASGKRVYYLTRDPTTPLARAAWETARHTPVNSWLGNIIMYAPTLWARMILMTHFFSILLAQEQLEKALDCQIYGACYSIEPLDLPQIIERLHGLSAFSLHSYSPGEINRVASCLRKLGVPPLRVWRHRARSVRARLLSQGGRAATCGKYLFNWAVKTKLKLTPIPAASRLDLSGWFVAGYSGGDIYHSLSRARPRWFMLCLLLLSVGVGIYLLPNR
Assay type: biochemical
In short: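 Recombinant genotype 1b polymerase (30 nM) extended biotin-dG12 primer on poly(rC)300 template with 1 μM GTP plus α-32P-GTP, pH 7.2, 10 mM MgCl2, 30 min at 30° C, 1% DMSO final. Products captured on DE filters and counted. IC50 fitted from triplicate cpm, with a tight-binding correction applied below 200 nM.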
`COc1ccc(CCC2(C3CCCC3)CC(=O)CC(=O)O2)c(C(C)=O)c1` (stereo not shown) [A(61), 6-[2-(2-acetyl-4-methoxyphenyl)ethyl]-6-cyclopentyldihydro-2H-pyran-2,4(3H)-dione] was tested, and the inhibition at 50 µM was 40%.

Same assay, conditions: recombinant HCV polymerase; 30 minutes at 30° C.; concentration giving 50% inhibition of polymerase-directed transcription; read-out: IC50
`COc1ccc(CCC2(C3CCCC3)CC(O)=C(Sc3ncccc3C#N)C(=O)O2)cc1Cl` (stereo not shown) [C(56), 2-({6-[2-(3-chloro-4-methoxyphenyl)ethyl]-6-cyclopentyl-4-hydroxy-2-oxo-5,6-dihydro-2H-pyran-3-yl}thio)nicotinonitrile] gave an IC50 of 1300 nM. With `COC(=O)Nc1cc(CC2=C(O)CC(CCc3ccc(C(F)F)c(F)c3)(C3CCCC3)OC2=O)on1` (stereo not shown) [B(72), Methyl 5-[(6-cyclopentyl-6-{2-[4-(difluoromethyl)-3-fluorophenyl]ethyl}-4-hydroxy-2-oxo-5,6-dihydro-2H-pyran-3-yl)methyl]isoxazol-3-ylcarbamate] the IC50 was 1400 nM. Compound `CC(C)(C#N)c1ccc(CCC2(C3CCCC3)CC(=O)C(Cc3nc4ncccn4n3)C(=O)O2)cc1F` (racemic) [A(104), 2-{4-[2-(2-Cyclopentyl-4,6-dioxo-5-[1,2,4]triazolo[1,5-a]pyrimidin-2-ylmethyl-tetrahydro-pyran-2-yl)-ethyl]-2-fluoro-phenyl}-2-methyl-propionitrile] has an IC50 of 8 nM. `CCc1cc(CCC2(C3CCCC3)CC(=O)CC(=O)O2)cc(Cl)c1O` (stereo not shown) [B(101), 6-[2-(3-Chloro-5-ethyl-4-hydroxy-phenyl)-ethyl]-6-cyclopentyl-dihydro-pyran-2,4-dione] showed an IC50 of 610 nM. `COc1ccc(CCC2(C3CCCC3)CC(O)=C(Cc3nc4nc(C)cc(C)n4n3)C(=O)O2)cc1[C@@H](C)O` (stereo in doubt) [B(120), 6-Cyclopentyl-3-(5,7-dimethyl-[1,2,4]triazolo[1,5-a]pyrimidin-2-ylmethyl)-4-hydroxy-6-{2-[3-(1-hydroxy-ethyl)-4-methoxy-phenyl]-ethyl}-5,6-dihydro-pyran-2-one] was tested, and the IC50 was 12 nM. `CCc1cc(CCC2(C3CCCC3)CC(O)=C(Cc3nc4nc(C)cc(C)n4n3)C(=O)O2)c(OC)cc1O` (stereo not shown) [A(150), 6-Cyclopentyl-3-(5,7-dimethyl-[1,2,4]triazolo[1,5-a]pyrimidin-2-ylmethyl)-6-[2-(5-ethyl-4-hydroxy-2-methoxy-phenyl)-ethyl]-4-hydroxy-5,6-dihydro-pyran-2-one] gave an IC50 of 7 nM. Compound `O=C1CC(=O)OC(CCc2ccc(C(=O)C3CC3)cc2)(C2CCCC2)C1` (stereo not shown) [A(32), 6-Cyclopentyl-6-[2-(4-cyclopropanecarbonyl-phenyl)-ethyl]-dihydro-pyran-2,4-dione] has an IC50 of 5200 nM. Work on `O=C1CC(=O)OC(CCc2ccc(OCC(F)(F)F)c(Cl)c2)(C2CCCC2)C1` (stereo not shown) [A(05), 6-{2-[3-Chloro-4-(2,2,2-trifluoro-ethoxy)-phenyl]-ethyl}-6-cyclopentyl-dihydro-pyran-2,4-dione] yielded an IC50 of 5100 nM. With `COc1ccc(CCC2(C3CCCC3)CC(O)=C(Sc3cccc(Cl)c3Cl)C(=O)O2)cc1Cl` (stereo not shown) [C(108), 6-[2-(3-chloro-4-methoxyphenyl)ethyl]-6-cyclopentyl-3-[(2,3-dichlorophenyl)thio]-4-hydroxy-5,6-dihydro-2H-pyran-2-one] the IC50 was 210 nM. `COc1cc(OC)c(CCC2(C3CCCC3)CC(O)=C(Sc3nc4cc(N)ccc4n3C)C(=O)O2)cc1Cl` (stereo not shown) [C(76), 3-[(5-amino-1-methyl-1H-benzimidazol-2-yl)thio]-6-[2-(5-chloro-2,4-dimethoxyphenyl)ethyl]-6-cyclopentyl-4-hydroxy-5,6-dihydro-2H-pyran-2-one] showed an IC50 of 53 nM. `CCn1cc(CCC2(C3CCCC3)CC(=O)CC(=O)O2)ccc1=O` (stereo not shown) [A(01), 6-Cyclopentyl-6-[2-(1-ethyl-6-oxo-1,6-dihydro-pyridin-3-yl)-ethyl]-dihydro-pyran-2,4-dione] was tested, and the IC50 was 38300 nM. `COc1ccc(CCC2(C3CCCC3)CC(O)=C(Cc3ccc(-n4cncn4)cc3)C(=O)O2)cc1Cl` (stereo not shown) [B(25), 6-[2-(3-Chloro-4-methoxy-phenyl)-ethyl]-6-cyclopentyl-4-hydroxy-3-(4-[1,2,4]triazol-1-yl-benzyl)-5,6-dihydro-pyran-2-one] was tested, and the IC50 was 240 nM. With `CCNC(=O)C(C)(C)c1ccc(CCC2(C3CCCC3)CC(O)=C(Cc3nc4ncc(C)cn4n3)C(=O)O2)cc1F` (stereo not shown) [A(268), 2-(4-{2-[2-Cyclopentyl-4-hydroxy-5-(6-methyl-[1,2,4]triazolo[1,5-a]pyrimidin-2-ylmethyl)-6-oxo-3,6-dihydro-2H-pyran-2-yl]-ethyl}-2-fluoro-phenyl)-N-ethyl-isobutyramide] the IC50 was 680 nM. `N#CCC(=O)c1ccc(CCC2(C3CCCC3)CC(=O)CC(=O)O2)cc1` (stereo not shown) [A(75), 3-{4-[2-(2-Cyclopentyl-4,6-dioxo-tetrahydro-pyran-2-yl)-ethyl]-phenyl}-3-oxo-propionitrile] was tested, and the IC50 was 7100 nM. With `COc1ccc(CCC2(C3CCCC3)CC(O)=C(Cc3ccc(-n4cccn4)cc3)C(=O)O2)cc1Cl` (stereo not shown) [B(24), 6-[2-(3-Chloro-4-methoxy-phenyl)-ethyl]-6-cyclopentyl-4-hydroxy-3-(4-pyrazol-1-yl-benzyl)-5,6-dihydro-pyran-2-one] the IC50 was 140 nM. Compound `CC(=O)Oc1ccc(CCC2(C3CCCC3)CC(=O)CC(=O)O2)cc1C(C)C` (stereo not shown) [A(94), Acetic acid 4-[2-(2-cyclopentyl-4,6-dioxo-tetrahydro-pyran-2-yl)-ethyl]-2-isopropyl-phenyl ester] has an IC50 of 4000 nM. Compound `COc1ccc(CCC2(C3CCCC3)CC(O)=C(Sc3nccn3C)C(=O)O2)cc1Cl` (stereo not shown) [C(101), 6-[2-(3-chloro-4-methoxyphenyl)ethyl]-6-cyclopentyl-4-hydroxy-3-[(1-methyl-1H-imidazol-2-yl)thio]-5,6-dihydro-2H-pyran-2-one] has an IC50 of 140 nM. Work on `COc1ccc(CCC2(C3CCCC3)CC(O)=C(Sc3nnc(O)n3C(C)C)C(=O)O2)cc1Cl` (stereo not shown) [C(06), 6-[2-(3-Chloro-4-methoxy-phenyl)-ethyl]-6-cyclopentyl-4-hydroxy-3-(5-hydroxy-4-isopropyl-4H-[1,2,4]triazol-3-ylsulfanyl)-5,6-dihydro-pyran-2-one] yielded an IC50 of 250 nM. `Cc1cc(C#CCCC2(C3CCCC3)CC(=O)CC(=O)O2)c(C)cc1O` (stereo not shown) [F(1), 6-Cyclopentyl-6-[4-(4-hydroxy-2,5-dimethyl-phenyl)-but-3-ynyl]-dihydro-pyran-2,4-dione] showed an IC50 of 7200 nM. In the case of `Cc1cc(C)n2nc(CC3C(=O)CC(CCc4cccc(C(C)C)c4)(C4CCCC4)OC3=O)nc2n1` (stereo not shown) [B(49), 6-cyclopentyl-3-[(5,7-dimethyl[1,2,4]triazolo[1,5-a]pyrimidin-2-yl)methyl]-6-[2-(3-isopropylphenyl)ethyl]dihydro-2H-pyran-2,4(3H)-dione], the IC50 is reported as 10 nM. `CCNC(=O)C(C)(C)c1ccc(CCC2(C3CCCC3)CC(=O)CC(=O)O2)cc1` (stereo not shown) [A(51), 2-{4-[2-(2-Cyclopentyl-4,6-dioxo-tetrahydro-pyran-2-yl)-ethyl]-phenyl}-N-ethyl-isobutyramide] gave an IC50 of 3900 nM. With `COC(=O)C(C)(C)Oc1ccc(CCC2(C3CCCC3)CC(=O)CC(=O)O2)cc1Cl` (stereo not shown) [A(53), 2-{2-Chloro-4-[2-(2-cyclopentyl-4,6-dioxo-tetrahydro-pyran-2-yl)-ethyl]-phenoxy}-2-methyl-propionic acid methyl ester] the IC50 was 3300 nM. For `CCc1cc(CCC2(C3CCCC3)CC(O)=C(Cc3nc4ncccn4n3)C(=O)O2)c(OC)cc1O` (stereo not shown) [A(207), 6-cyclopentyl-6-[2-(5-ethyl-4-hydroxy-2-methoxyphenyl)ethyl]-4-hydroxy-3-([1,2,4]triazolo[1,5-a]pyrimidin-2-ylmethyl)-5,6-dihydro-2H-pyran-2-one], the IC50 was 4 nM. In the case of `Cc1cc(C)n2nc(CC3=C(O)CC(CCc4ccc(N(C)S(C)(=O)=O)c(F)c4)(C4CCCC4)OC3=O)nc2n1` (stereo not shown) [A(131), 6-cyclopentyl-3-[(5,7-dimethyl[1,2,4]triazolo[1,5-a]pyrimidin-2-yl)methyl]-6-[2-(3-fluoro-4-{methyl[methyl(dimethylene)-I^6-sulfanyl]amino}phenyl)ethyl]-4-hydroxy-5,6-dihydro-2H-pyran-2-one], the IC50 is reported as 137 nM. For `CC(C)Oc1ccc(CCC2(C3CCCC3)CC(O)=C(Cc3nc4ccccc4n3C)C(=O)O2)cc1F` (stereo not shown) [B(16), 6-Cyclopentyl-6-[2-(3-fluoro-4-isopropoxy-phenyl)-ethyl]-4-hydroxy-3-(1-methyl-1H-benzoimidazol-2-ylmethyl)-5,6-dihydro-pyran-2-one], the IC50 was 900 nM. Work on `Cc1cc(C)n2nc(CC3=C(O)CC(CCc4ccc5c(c4)OC(F)(F)C(F)(F)O5)(C4CCCC4)OC3=O)nc2n1` (stereo not shown) [B(40), 6-Cyclopentyl-3-(5,7-dimethyl-[1,2,4]triazolo[1,5-a]pyrimidin-2-ylmethyl)-4-hydroxy-6-[2-(2,2,3,3-tetrafluoro-2,3-dihydro-benzo[1,4]dioxin-6-yl)-ethyl]-5,6-dihydro-pyran-2-one] yielded an IC50 of 14 nM. For `COc1ccc(CCC2(C3CCCC3)CC(O)=C(Sc3nnc(-c4ccncc4)[nH]3)C(=O)O2)cc1Cl` (stereo not shown) [C(50), 6-[2-(3-chloro-4-methoxyphenyl)ethyl]-6-cyclopentyl-4-hydroxy-3-[(5-pyridin-4-yl-4H-1,2,4-triazol-3-yl)thio]-5,6-dihydro-2H-pyran-2-one], the IC50 was 10 nM. Work on `C[C@@H](O)c1ccc(CCC2(C3CCCC3)CC(O)=C(Cc3nc4ncc(Cl)cn4n3)C(=O)O2)cc1F` (stereo in doubt) [B(116), 3-(6-Chloro-[1,2,4]triazolo[1,5-a]pyrimidin-2-ylmethyl)-6-cyclopentyl-6-{2-[3-fluoro-4-(1-hydroxy-ethyl)-phenyl]-ethyl}-4-hydroxy-5,6-dihydro-pyran-2-one] yielded an IC50 of 11 nM. For `Cc1noc(C)c1-c1ccc(CCC2(C3CCCC3)CC(=O)CC(=O)O2)cc1` (stereo not shown) [A(18), 6-Cyclopentyl-6-{2-[4-(3,5-dimethyl-isoxazol-4-yl)-phenyl]-ethyl}-dihydro-pyran-2,4-dione], the IC50 was 3100 nM. Work on `CCc1ccc(OCCOC)c(CCC2(C3CCCC3)CC(O)=C(Cc3nc4nc(C)cc(C)n4n3)C(=O)O2)c1` (stereo not shown) [A(177), 6-Cyclopentyl-3-(5,7-dimethyl-[1,2,4]triazolo[1,5-a]pyrimidin-2-ylmethyl)-6-{2-[5-ethyl-2-(2-methoxy-ethoxy)-phenyl]-ethyl}-4-hydroxy-5,6-dihydro-pyran-2-one] yielded an IC50 of 14 nM.
